According to patent US20150031045A1, “MARKERS FOR DIAGNOSING AMYOTROPHIC LATERAL SCLEROSIS” (University Of Maryland, priority 2012, published 2015):
“Also recorded” adds a separate entry of the source.

What was measured:
[1] = Body weight of G93A*SOD1 ALS mice treated with 6-gingerol; assay type: in vivo
Experimental: (§1) The study used 12 mice. At 35 d, mice were assigned to treatment groups. The 3 groups in the study were: i) wild-type control mice treated with vehicle (CON-Veh; n=4; 3 female (F) and 1 male (M)); ii) G93A*SOD1 ALS mice treated with vehicle (ALS-Veh; n=4; 3 F and 1 M; and iii) G93A*SOD1 mice treated with 6-Gingerol (ALS-Gin; n=4; 3 F and 1 M). There were no 6-gingerol treated control mice due to cost of the drug.
(§2) 6-gingerol was purchased from Carbosynth Limited, UK. Mice were dosed daily with intraperitoneal (ip) injection of vehicle (0.4% ethanol in PBS) or 6-gingerol at a dose of 10 mg/kg. Treatment began when mice were 35 d old and terminated at 115 d. The volume dosed was adjusted weekly according to changes in body weight.
In this study, mice were evaluated at an average age of 115±5 d (for CON-Veh, ALS-Veh and ALS-Gin), just prior to severe symptom onset. […] There was also a significant reduction in muscle mass in ALS vs. CON mice and a 21% improvement in muscle mass with 6-gingerol (CON-Veh: 0.111±0.015 g; ALS-Veh: 0.075±0.010 g; ALS-Gin 0.090±0.007 g) (FIG. 22, left panel, and Table 4).

G93A*SOD1 ALS mice [2] = experiment: Gastrocnemius muscle mass and muscle mass index; assay type: in vivo
Experimental: as §1, §2
Specifically, muscle function was assessed using a grip test and a walking or stride test at the termination of the study. After conclusion of the grip function and stride function tests, the mice were then sacrificed and skeletal muscle tissues weighed to determine muscle mass.

G93A*SOD1 ALS mice [3] = experiment: Grip function test; assay type: in vivo; settings: 10 mg/kg ip daily
Experimental: as §1, §2
Briefly, mice are placed on a metal grid (20 cm wide, 40 cm long; grid placed 40 cm above table) and allowed to grip with fore- and hind-limb paws prior to inverting the grid. Timing begins once the grid is inverted and stops once the mouse can no longer hold the lid.

G93A*SOD1 ALS mice [4] = experiment: Stride length test; assay type: in vivo; settings: 10 mg/kg ip daily; p=0.13
Experimental: as §1, §2
Briefly, fore- and hind-limb paws are dipped in non-toxic paint and mice walk across a 120 cm table covered in white paper. A dark box with food is placed at the far end to encourage walking across the table. The distance between the fore- and hind-limb ink marks are then measured. Four strides per mouse are quantified and the average stride length determined

[5] = system: single muscle fibres from the flexor digitorum brevis (FDB) muscle; experiment: Intracellular Ca2+ handling (Fura-2) in single muscle fibres from treated mice; assay type: in vivo
Experimental: For e-c coupling measurements, fibres were loaded with 1 μM Fura-2 AM in MEM/FBS media for 15 min at room temperature. Fura-2 AM media was then removed by quick centrifugation and fibres were resuspended in fresh MEM/FBS media. Fibres loaded with Fura-2 were placed in a culture/stimulation chamber (Cell MicroControls) containing parallel electrodes on top of a Nikon TiU microscope. Once in the chamber, fibres were continuously perfused with stimulating tyrode (121 mM NaCl, 5 mM KCl, 1.8 mM CaCl2, 0.5 mM MgCl2, 0.4 mM NaH2PO4, 24 mM NaHCO3, and 5.5 mM glucose) pH 7.3 when continuously bubbled with 95% O2/5% CO2 using a Gilson Minipuls 3 peristaltic pump and vacuum pump. Intracellular Ca^2+ levels were assessed by Fura-2 fluorescence ratio (ratio of excitation at 340 and 380 nm; emission at 510 nm) using the IonOptix Hyperswitch system, with the Hyperswitch enabling collection of ratiometric data at a frequency of 250 Hz. Ratios were converted to intracellular free Ca^2+ concentration ([Ca^2+]i). The Fura-2 ratio was calibrated in vivo using the Ca^2+ ionophore A23187 and 10 mM EGTA or 1 mM CaCl2, with Rmin and Rmax determined to be 0.33 and 3.50, respectively. The Kd for Ca^2+ for Fura-2 was 224 nM.
Fura-2 loaded single fibres were stimulated using 350 ms tetani, 0.5 ms pulse duration at 10, 30, 50, 70 and 100, 120 and 150 Hz stimulation frequencies (S48 Square Pulse Stimulator, GRASS Technologies) with one minute rest between frequencies. All single fibre data was collected at room temperature (23 degrees Celsius). […]
After conclusion of the grip function and stride function tests, mice were then sacrificed and single muscle fibres were obtained immediately from the flexor digitorum brevis (FDB) muscle and intracellular Ca^2+ handling assessed using Fura-2 as discussed above in Example 1. Changes in Fura-2 ratio, representing changes in [Ca^2+]i, were measured under resting conditions and in response to electrical stimulation at a range of physiological frequencies (10-150 Hz). […]

SERCA1 = SERCA1 protein level in gastrocnemius muscle by western blot; assay type: in vivo, mice; settings: 10 mg/kg ip daily; levels nearing those in CON muscle; p<0.05 vs. ALS-Veh
Description: (§3) The superficial (SP) and deep (DP) portions of the gastrocnemius muscle (SP GAS and DP GAS, respectively) were used for analysis of Ca^2+ regulatory protein levels by western blot. Anatomically, the gastrocnemius muscle is composed of a lateral and medial head, with a similar mixture of fibres types in the two heads: lateral gastrocnemius is 69% fast glycolytic (FG), 30% fast oxidative and glycolytic (FOG) and 1% slow oxidative (SO) fibres and medial gastrocnemius is 55% FG, 32% FOG and 8% SO. The muscle was divided by superficial vs. deep portions due to their glycolytic (white) vs. oxidative (red) differences, respectively. […] Protein levels were determined using a BCA protein kit (Thermo Scientific). […] For assessment of changes in sarcoplasmic reticulum (SR)/endoplasmic reticulum (ER) Ca^2+ (SERCA) pump, SERCA1 and SERCA2 protein levels were measured. Specifically, 15 μg protein was loaded on 8% gels and analyzed by polyacrylamide gel electrophoresis (PAGE). Levels of parvalbumin (PV) were assessed by loading 2.5 μg protein on 15% gels. […] Level of each respective protein was quantified by chemiluminescence using SuperSignal West Dura Chemiluminescent Substrate (Thermo Scientific) and imaged using a chemiluminescence imaging system (GeneGnome, Syngene). Protein expression levels are expressed as Arbitrary Units (AU). […]

SERCA2 = SERCA2 protein level in skeletal muscle by western blot; assay type: in vivo, mice; settings: 10 mg/kg ip daily
Description: as §3

CHOP = CHOP protein level in gastrocnemius muscle by western blot; assay type: in vivo, mice; settings: 10 mg/kg ip daily; p<0.05 vs. ALS-Veh
Experimental: Total protein was determined using a BCA protein assay kit (Thermo Scientific). Samples were then solubilized in loading buffer and denatured (5 min at 100° C.). For assessment of changes in protein expression levels, 15-30 μg total protein were loaded on bis-acrylamide gels and analyzed by polyacrylamide gel electrophoresis (PAGE). The amount of protein loaded for each endpoint was determined by separate analysis of the linear range for each antibody. Samples were then transferred to PVDF membrane (Millipore) and blocked with 5% (w/v) non-fat dry milk powder in Tris-buffered saline (pH 8.0) for 1 hr. […] Secondary antibodies were detected using HRP-linked chemiluminescence with SuperSignal West Dura Chemiluminescence Substrate (Thermo Scientific) and imaged using a chemiluminescence imaging system (GeneGnome, Syngene). The signal for the target protein of each sample was quantified and expressed in arbitrary unit (AU) and then values for each ALS and CON mouse expressed as a ratio relative to the first CON mouse (CON1) at each age. […]
The response of skeletal muscle to the ER stress markers was also assessed in response to gingerol treatment, namely by examining the levels of the apoptotic factor CHOP.

PERK = PERK protein level in gastrocnemius muscle by western blot; assay type: in vivo, mice; settings: n=5
Experimental: (§4) As described above in Examples 15-18, ALS mice administered 6-gingerol had improved muscle function, improved intracellular calcium clearance, increased SERCA1 protein levels, and decreased CHOP protein levels. To further examine the response of skeletal muscle to 6-gingerol treatment, the levels of ER stress proteins PERK, GRP78/BiP, PDI, and IRE1α were measured in the gastrocnemius muscle of control (CON) and G93A*SOD1 (ALS) mice treated with vehicle (Veh) or 6-gingerol (Gin). Specifically, the protein levels were measured by western blotting. Each group had five mice, i.e., CON (n=5), ALS-Veh (n=5), and ALS-Gin (n=5).

GRP78/BiP = GRP78/BiP protein level in gastrocnemius muscle by western blot; assay type: in vivo, mice; settings: n=5
Experimental: as §4

PDI = PDI protein level in gastrocnemius muscle by western blot; assay type: in vivo, mice; settings: n=5
Experimental: as §4

IRE1α = IRE1α protein level in gastrocnemius muscle by western blot; assay type: in vivo, mice; settings: n=5
Experimental: as §4

SR Ca^2+ ATPase (SERCA) = experiment: Maximum Ca2+ ATPase activity in skeletal muscle homogenates; assay type: in vivo, mice; settings: 10 mg/kg 6-gingerol for 10 weeks, p<0.05 vs. ALS-Veh
Experimental: To further examine the effects of 6-gingerol treatment, maximum Ca^2+ ATPase activity was measured in control (CON) and G93A*SOD1 (ALS) mice treated with vehicle (Veh) or 6-gingerol (Gingerol). Specifically, ALS mice received 10 mg/kg 6-gingerol for 10 weeks. The vehicle was administered in parallel to the CON-Veh and ALS-Veh groups of mice.
SR Ca^2+ ATPase (SERCA) activity in skeletal muscle homogenates obtained from the mice was then measured and the average data for all groups is shown in FIG. 31, in which CON (n=5), ALS-Veh (n=5), and ALS-Gin (n=5). In FIG. 31, *=p<0.05 vs. CON-Veh and #=p<0.05 vs. ALS-Veh.

Structure (SMILES): CCCCC[C@H](O)CC(=O)CCc1ccc(O)c(OC)c1 [6-gingerol]
- Effect of 6-gingerol on body weight ([1]; ALS-Gin vs. ALS-Veh, 10 mg/kg ip daily, 10 mg/kg): no significant improvement
- Body weight ([1]; ALS-Gin: G93A*SOD1 mice, 10 mg/kg ip daily from 35 d, evaluated at 115±5 d, CON-Veh 21.0±2.7, ALS-Veh 17.8±1.4): 18.2 ± 0.7 g
- Muscle mass index (mg muscle per g body weight), reduction in ALS (G93A*SOD1 ALS mice [2]; ALS-Gin vs. ALS-Veh): attenuated
- Improvement in muscle mass with 6-gingerol (G93A*SOD1 ALS mice [2]; ALS-Gin vs. ALS-Veh, 10 mg/kg ip daily): 21%
- Gastrocnemius muscle mass (G93A*SOD1 ALS mice [2]; ALS-Gin, 10 mg/kg ip daily 35-115 d, CON-Veh 0.111±0.015, ALS-Veh 0.075±0.010): 0.090 ± 0.007 g
- Grip test time, difference ALS-Gin vs. ALS-Veh (G93A*SOD1 ALS mice [3]; p<0.10): did not reach significance
- Grip function, % of CON-Veh level (G93A*SOD1 ALS mice [3]; ALS-Gin, ALS-Veh 17% of CON-Veh, p=0.08): 42%
- Stride length, difference ALS-Gin vs. ALS-Veh (G93A*SOD1 ALS mice [4]): tendency to improve; also recorded: did not reach statistical significance
- Effect of 6-gingerol on peak Fura-2 ratio (10 Hz) ([5]; ALS-Gin vs. ALS-Veh): no attenuation; also recorded: no improvement
- Ca^2+ decay time, ALS-Gin vs. ALS-Veh ([5]; single FDB fibres, after 50 and 100 Hz tetani, p<0.11): tendency for improvement; also recorded: trend for single fibres from ALS-Gin to have a faster decay time
- Resting Fura-2 ratio, ALS-Gin vs. ALS-Veh ([5]; single FDB fibres, p=0.13): lower but did not reach statistical significance; also recorded: tendency for Fura-2 ratio to be lower
- SERCA1 protein level in gastrocnemius muscle, ALS-Gin compared to ALS-Veh (SERCA1): dramatic increase
- SERCA2 protein level, rescue of the decrease with 6-gingerol treatment (SERCA2): minimal rescue
- CHOP protein level in skeletal muscle, ALS-Gin vs. ALS-Veh (CHOP): significantly attenuated
- PERK protein level, ALS-Gin compared to ALS-Veh (PERK): decreased
- GRP78/BiP protein level, ALS-Gin compared to ALS-Veh (GRP78/BiP): decreased
- PDI protein level, ALS-Gin compared to ALS-Veh (PDI): decreased
- IRE1α protein level, ALS-Gin compared to ALS-Veh (IRE1α): decreased
- Ca^2+ ATPase maximum activity (SERCA activity), ALS-Gin relative to ALS-Veh (SR Ca^2+ ATPase (SERCA)): increased; also recorded: restored Ca^2+ ATPase maximum activity
